Experimental data reported in PubChem BioAssay AID1963440 (Molecular Pharmacology Branch, DTP, NCI, 2024).
pIC50: −log10 of the molar value.

Test system: NCI-H1417 complex spheroids, growth % test/control
Experiment: Anticancer human tumor NCI-H1417 cell line growth inhibition [Asc];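 further: spheroids exposed to compounds for 7 days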;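 on viability, T/C: 100% = DMSO vehicle control wells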
Conditions: for pIC50: curve of first compound; for viability, T/C: stronger effect = lower value
Summary of the method: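 Tumor cells were grown as complex spheroids with human endothelial cells (HUVEC) and human mesenchymal stem cells as stroma. Agents were tested alone and in combination, in half-log steps down from the clinical Cmax, or from 10 microM where Cmax was unknown.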

[1] = second compound 0.1 µM, first compound 0.0316 µM
[2] = second compound 0.1 µM, first compound 0.1 µM
[3] = second compound 0.1 µM, first compound 0.316 µM
[4] = second compound 0.1 µM, first compound 1 µM
[5] = second compound 0.1 µM, first compound 3.16 µM
[6] = second compound 0.1 µM, first compound 10 µM
[7] = second compound 0.316 µM, first compound 0.0316 µM
[8] = second compound 0.316 µM, first compound 0.1 µM
[9] = second compound 0.316 µM, first compound 0.316 µM
[10] = second compound 0.316 µM, first compound 1 µM
[11] = second compound 0.316 µM, first compound 3.16 µM
[12] = second compound 0.316 µM, first compound 10 µM
[13] = second compound 1 µM, first compound 0.0316 µM
[14] = second compound 1 µM, first compound 0.1 µM
[15] = second compound 1 µM, first compound 0.316 µM
[16] = second compound 1 µM, first compound 1 µM
[17] = second compound 1 µM, first compound 3.16 µM
[18] = second compound 1 µM, first compound 10 µM
[19] = second compound 3.16 µM, first compound 0.0316 µM
[20] = second compound 3.16 µM, first compound 0.1 µM
[21] = second compound 3.16 µM, first compound 0.316 µM
[22] = second compound 3.16 µM, first compound 1 µM
[23] = second compound 3.16 µM, first compound 3.16 µM
[24] = second compound 3.16 µM, first compound 10 µM
[25] = second compound 10 µM, first compound 0.0316 µM
[26] = second compound 10 µM, first compound 0.1 µM
[27] = second compound 10 µM, first compound 0.316 µM
[28] = second compound 10 µM, first compound 1 µM
[29] = second compound 10 µM, first compound 3.16 µM
[30] = second compound 10 µM, first compound 10 µM

## C=C(F)C(=O)N1CCN(c2nc(OCC3CCCN3C)nc3c2CCN(c2cccc4cccc(Cl)c24)C3)CC1CC#N (stereo not given) + Cc1c(S(C)(=O)=O)c(-c2cc(F)cc(N3CCN(c4ccc(NS(=O)(=O)c5ccc(NC(CCN6CCC(C(=O)OCCCP(=O)(O)O)CC6)CSc6ccccc6)c(S(=O)(=O)C(F)(F)F)c5)cc4)CC3)c2)c(-c2ccc(Cl)cc2)n1C(C)C
Second compound 0.1 µM
  pIC50: 5.91
Second compound 0.316 µM
  pIC50: > 7.50
Second compound 1 µM
  pIC50: > 7.50
Second compound 3.16 µM
  pIC50: > 7.50
Second compound 10 µM
  pIC50: > 7.50
[1]
  viability, T/C: 75.7%
[2]
  viability, T/C: 80%
[3]
  viability, T/C: 67.9%
[4]
  viability, T/C: 61.1%
[5]
  viability, T/C: 1.57%
[6]
  viability, T/C: 0.85%
[7]
  viability, T/C: 43.5%
[8]
  viability, T/C: 46%
[9]
  viability, T/C: 35.5%
[10]
  viability, T/C: 14%
[11]
  viability, T/C: 0.94%
[12]
  viability, T/C: 0.12%
[13]
  viability, T/C: 12.3%
[14]
  viability, T/C: 9.05%
[15]
  viability, T/C: 5.54%
[16]
  viability, T/C: 2.95%
[17]
  viability, T/C: 0.15%
[18]
  viability, T/C: 0.11%
[19]
  viability, T/C: 2.93%
[20]
  viability, T/C: 2.78%
[21]
  viability, T/C: 2.82%
[22]
  viability, T/C: 2.57%
[23]
  viability, T/C: 0.11%
[24]
  viability, T/C: 0.12%
[25]
  viability, T/C: 2.01%
[26]
  viability, T/C: 2.86%
[27]
  viability, T/C: 3.34%
[28]
  viability, T/C: 1.29%
[29]
  viability, T/C: 0.21%
[30]
  viability, T/C: 0.19%

## C=CC(=O)N1CCN(c2nc(=O)n(-c3c(C)ccnc3C(C)C)c3nc(-c4c(O)cccc4F)c(F)cc23)C(C)C1 (stereo not given) + Cc1c(S(C)(=O)=O)c(-c2cc(F)cc(N3CCN(c4ccc(NS(=O)(=O)c5ccc(NC(CCN6CCC(C(=O)OCCCP(=O)(O)O)CC6)CSc6ccccc6)c(S(=O)(=O)C(F)(F)F)c5)cc4)CC3)c2)c(-c2ccc(Cl)cc2)n1C(C)C
Second compound 0.1 µM
  pIC50: < 5.00
Second compound 0.316 µM
  pIC50: 5.40
Second compound 1 µM
  pIC50: > 7.50
Second compound 3.16 µM
  pIC50: > 7.50
Second compound 10 µM
  pIC50: > 7.50
[1]
  viability, T/C: 79.9%
[2]
  viability, T/C: 97.7%
[3]
  viability, T/C: 94%
[4]
  viability, T/C: 88.7%
[5]
  viability, T/C: 79.5%
[6]
  viability, T/C: 76.5%
[7]
  viability, T/C: 50.7%
[8]
  viability, T/C: 52.8%
[9]
  viability, T/C: 59.2%
[10]
  viability, T/C: 55.8%
[11]
  viability, T/C: 60.4%
[12]
  viability, T/C: 26.5%
[13]
  viability, T/C: 12.8%
[14]
  viability, T/C: 19%
[15]
  viability, T/C: 19.2%
[16]
  viability, T/C: 27.2%
[17]
  viability, T/C: 15.7%
[18]
  viability, T/C: 6.31%
[19]
  viability, T/C: 3.89%
[20]
  viability, T/C: 4.22%
[21]
  viability, T/C: 4.64%
[22]
  viability, T/C: 3.72%
[23]
  viability, T/C: 3.98%
[24]
  viability, T/C: 3.94%
[25]
  viability, T/C: 2.86%
[26]
  viability, T/C: 2.89%
[27]
  viability, T/C: 3.43%
[28]
  viability, T/C: 2.4%
[29]
  viability, T/C: 3.1%
[30]
  viability, T/C: 3.85%

## CCN1C(C(=O)NC23CCC(C(=O)O)(CC2)CC3)C(c2cccc(Cl)c2F)C2(C(=O)Nc3cc(Cl)ccc32)C12CCCCC2 (stereo not given) + Cc1c(S(C)(=O)=O)c(-c2cc(F)cc(N3CCN(c4ccc(NS(=O)(=O)c5ccc(NC(CCN6CCC(C(=O)OCCCP(=O)(O)O)CC6)CSc6ccccc6)c(S(=O)(=O)C(F)(F)F)c5)cc4)CC3)c2)c(-c2ccc(Cl)cc2)n1C(C)C
Second compound 0.1 µM
  pIC50: 6.23
Second compound 0.316 µM
  pIC50: > 8.02
Second compound 1 µM
  pIC50: > 8.02
Second compound 3.16 µM
  pIC50: > 8.02
Second compound 10 µM
  pIC50: > 8.02
Second compound 0.1 µM, first compound 0.00949 µM
  viability, T/C: 78.9%
Second compound 0.1 µM, first compound 0.03 µM
  viability, T/C: 81.2%
Second compound 0.1 µM, first compound 0.0949 µM
  viability, T/C: 67.5%
Second compound 0.1 µM, first compound 0.3 µM
  viability, T/C: 58.7%
Second compound 0.1 µM, first compound 0.949 µM
  viability, T/C: 44.9%
Second compound 0.1 µM, first compound 3 µM
  viability, T/C: 16.4%
Second compound 0.316 µM, first compound 0.00949 µM
  viability, T/C: 35.7%
Second compound 0.316 µM, first compound 0.03 µM
  viability, T/C: 33.3%
Second compound 0.316 µM, first compound 0.0949 µM
  viability, T/C: 22.1%
Second compound 0.316 µM, first compound 0.3 µM
  viability, T/C: 16.4%
Second compound 0.316 µM, first compound 0.949 µM
  viability, T/C: 11.8%
Second compound 0.316 µM, first compound 3 µM
  viability, T/C: 1.6%
Second compound 1 µM, first compound 0.00949 µM
  viability, T/C: 11.4%
Second compound 1 µM, first compound 0.03 µM
  viability, T/C: 6.74%
Second compound 1 µM, first compound 0.0949 µM
  viability, T/C: 4.76%
Second compound 1 µM, first compound 0.3 µM
  viability, T/C: 2.15%
Second compound 1 µM, first compound 0.949 µM
  viability, T/C: 1.25%
Second compound 1 µM, first compound 3 µM
  viability, T/C: 0.65%
Second compound 3.16 µM, first compound 0.00949 µM
  viability, T/C: 2.36%
Second compound 3.16 µM, first compound 0.03 µM
  viability, T/C: 2.41%
Second compound 3.16 µM, first compound 0.0949 µM
  viability, T/C: 1.59%
Second compound 3.16 µM, first compound 0.3 µM
  viability, T/C: 1.03%
Second compound 3.16 µM, first compound 0.949 µM
  viability, T/C: 0.63%
Second compound 3.16 µM, first compound 3 µM
  viability, T/C: 0.39%
Second compound 10 µM, first compound 0.00949 µM
  viability, T/C: 1.88%
Second compound 10 µM, first compound 0.03 µM
  viability, T/C: 2.25%
Second compound 10 µM, first compound 0.0949 µM
  viability, T/C: 2.08%
Second compound 10 µM, first compound 0.3 µM
  viability, T/C: 1.02%
Second compound 10 µM, first compound 0.949 µM
  viability, T/C: 0.65%
Second compound 10 µM, first compound 3 µM
  viability, T/C: 0.29%
